Results taken from US9408854B2, “Methods and systems for pharmacogenomic treatment of cardiovascular conditions” (ROSTAQUO S.P.A., priority 2009, dated 2016).

Tests used:
hypertensive patients = assay: Two separate studies: blood pressure change with HCTZ, Losartan and rostafuroxin in patients carrying profile 4, 8 or 9; type: in vivo, human; details: preliminary data
Excerpt: In particular, individuals carrying profile 4 show a modification in blood pressure of: −12.3±1.5 mmHg with HCTZ; −11.3±1.7 with Losartan and −18.74±1.8 mmHg with rostafuroxin; individuals with profile 8 show the a decrease in blood pressure of −11.3±1.2 with HCTZ; −11.6±1.3 with Losartan and −15.2±1.5 mmHg with rostafuroxin; individuals with profile 9 show the a decrease in blood pressure of −11.9±1.2 with HCTZ; −11.4±1.4 with Losartan and −15.2±1.5 mmHg with rostafuroxin.

[1] = Maximal tolerated dose without any effects (NOAEL) in animals; details: in vivo, read-out: maximal tolerated dose that does not produce any effects (NOAEL)
Na—K Pump and cSrc = assay: In vitro correction of the effect of mutated adducin or ouabain on Na-K pump and cSrc; type: biochemical; details: picomolar concentrations in vitro

Compound: C[C@]12CC[C@H](O)C[C@H]1CC[C@@H]1[C@@H]2CC[C@]2(C)[C@@](O)(c3ccoc3)CC[C@]12O [rostafuroxin, 17β-(3-furyl)-5β-androstane-3β,14β,17α-triol]
- modification in blood pressure (hypertensive patients; individuals carrying profile 4): −18.74±1.8 mmHg
- decrease in blood pressure (hypertensive patients; individuals with profile 8): −15.2±1.5 mmHg
- decrease in blood pressure (hypertensive patients; individuals with profile 9): −15.2±1.5 mmHg
- NOAEL [1]: 100 mg/kg
- correction of the effect of mutated adducin or ouabain on Na—K Pump and cSrc (Na—K Pump and cSrc): able to selectively correct the effect of mutated adducin or ouabain on Na—K Pump and cSrc, without blocking the effect of wild adducin
